The source of these data is US20240181080A1, “METHOD FOR CONTROLLING HETEROGENEITY OF VASCULAR ENDOTHELIAL CELLS BY UTILIZING SYMPATHETIC NERVES” (priority 2021, published 2024).

Assay [1] has as its system L-subtype vascular endothelium. As to conditions: aged C57BL/6J male mice; prior art; cited from earlier work.
The test system of assay [2] is H-subtype bone vascular endothelial cells. The assay can be described thus: Example 1: fluorescence microscopy (CD31, EMCN) of bone vascular endothelial cells at the femoral epiphyseal end, after intraosseous hM3Dq virus and CNO injection. It counts as in vivo, TH-Cre transgenic mouse. The settings on record: hM3Dq side vs mCherry control side; CNO 1 mg/kg every 48 h for 4 weeks. The protocol: A TH-Cre transgenic mouse aged 4 weeks was selected and anesthetized, and then the skin and muscle on the femur of the mouse were carefully parted. A hole was made in the femur using a small needle to reach the marrow cavity. Using a microsyringe, 1 μL of pAAV-hSyn-DIO-hM3D(Gq)-mCherry with a viral titer of about […] was slowly injected into the long bone marrow cavity of the TH-Cre mouse on one side of the femur in the lower limb through the small hole, serving as an experimental group (recorded as hM3Dq); on the other side, pAAV-hSyn-DIO-mCherry was injected, serving as a control group (recorded as mCherry). […]
After recovery of the mouse and 6 weeks of expression of the gene carried by the virus, CNO was injected (at a dose to achieve a concentration of 1 mg/kg in the mouse) every 48 h for 4 consecutive weeks. […] Data were expressed as (Means±S.E.M.); P<0.05 was considered a significant difference.
CD31 is marked with green fluorescence, and EMCN is marked with red fluorescence; both are markers for H-subtype bone vascular endothelium. The stronger the fluorescence intensity, the more complete the vascular morphology, indicating greater expression of CD31 and EMCN, i.e., the higher number of the H-subtype bone vascular endothelial cells. […]

Assay [3] in a line: Example 1: microCT of the trabecular bone at the femoral epiphyseal end, after intraosseous hM3Dq virus and CNO injection. It counts as in vivo, TH-Cre transgenic mouse. As to conditions: CNO 1 mg/kg every 48 h for 4 weeks.
Assay [4] relates to H-subtype bone vascular endothelial cells. The assay can be described thus: Example 2: fluorescence microscopy (CD31, EMCN) of bone vascular endothelial cells at the femoral epiphyseal end, after intraosseous hM4Di virus and CNO injection. The format is in vivo, TH-Cre transgenic mouse. As to conditions: hM4Di side vs mCherry control side; CNO 1 mg/kg every 48 h for 4 weeks.
Assay [5] is described as follows: Example 2: microCT of the trabecular bone at the femoral epiphyseal end, after intraosseous hM4Di virus and CNO injection. The format is in vivo, TH-Cre transgenic mouse. The settings on record: CNO 1 mg/kg every 48 h for 4 weeks.
The target of the next assay is T1, hM4Di (Homo sapiens, UniProt P08173, A203G/Y113C).
T1 sequence (P08173 1-479 Y113C/A203G): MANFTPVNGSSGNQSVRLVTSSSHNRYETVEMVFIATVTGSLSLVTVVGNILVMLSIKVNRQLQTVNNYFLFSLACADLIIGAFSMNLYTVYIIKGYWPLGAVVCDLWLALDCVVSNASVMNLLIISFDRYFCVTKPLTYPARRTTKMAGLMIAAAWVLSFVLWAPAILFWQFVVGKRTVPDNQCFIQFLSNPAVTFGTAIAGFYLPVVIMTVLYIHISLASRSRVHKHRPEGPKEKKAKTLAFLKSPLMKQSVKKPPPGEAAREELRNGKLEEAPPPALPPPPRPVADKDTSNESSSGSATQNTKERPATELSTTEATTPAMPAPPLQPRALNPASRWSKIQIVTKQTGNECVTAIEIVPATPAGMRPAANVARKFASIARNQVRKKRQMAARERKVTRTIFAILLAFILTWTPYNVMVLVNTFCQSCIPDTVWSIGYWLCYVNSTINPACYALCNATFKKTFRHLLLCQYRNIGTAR
The settings on record: comparator not stated; patent notes structural similarity to clozapine; cited from earlier work.

Another assay addresses hM3Dq (Homo sapiens, UniProt P20309, A239G/Y149C). As to conditions: comparator not stated; patent notes structural similarity to clozapine; cited from earlier work.

Structures can show the parent of a compound that is named as a salt.

Sequence of hM3Dq (P20309 whole entry Y149C/A239G): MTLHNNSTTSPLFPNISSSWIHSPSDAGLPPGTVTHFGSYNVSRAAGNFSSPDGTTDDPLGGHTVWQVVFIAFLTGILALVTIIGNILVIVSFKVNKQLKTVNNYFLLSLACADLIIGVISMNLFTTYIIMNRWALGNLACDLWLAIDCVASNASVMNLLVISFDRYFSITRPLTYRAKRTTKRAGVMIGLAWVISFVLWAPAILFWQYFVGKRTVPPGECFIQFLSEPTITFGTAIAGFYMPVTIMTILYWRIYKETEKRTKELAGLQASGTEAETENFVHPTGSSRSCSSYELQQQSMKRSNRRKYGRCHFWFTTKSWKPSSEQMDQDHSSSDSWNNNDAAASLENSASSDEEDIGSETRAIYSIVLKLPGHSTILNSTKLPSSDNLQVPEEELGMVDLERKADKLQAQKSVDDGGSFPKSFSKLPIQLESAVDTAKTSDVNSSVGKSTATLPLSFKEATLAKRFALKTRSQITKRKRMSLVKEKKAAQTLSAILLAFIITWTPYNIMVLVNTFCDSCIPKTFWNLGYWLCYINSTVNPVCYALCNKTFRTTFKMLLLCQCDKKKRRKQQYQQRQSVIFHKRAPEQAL

For the molecule `CC(=O)N(O)CCCCCNC(=O)CCC(=O)N(O)CCCCCNC(=O)CCC(=O)N(O)CCCCCN` [deferoxamine mesylate], in assay [1], the bone mineral density result is reported as “increasing” and the “reverse transformation of L-subtype vascular endothelium into H-subtype vascular endothelium” value is “promotes”.

In the case of `C[N+]1([O-])CCN(C2=Nc3cc(Cl)ccc3Nc3ccccc32)CC1` [CNO, Clozapine N-oxide], in assay [2], the “number of the H-subtype bone vascular endothelial cells near the long bone growth plate” value was “increased” and the sympathetic nerve activity result is reported as “activated”. Moreover, in assay [3], the “bone mass of the trabecular bone” value is “rise”. Also, in assay [4], the “number of the H-subtype bone vascular endothelial cells” value is given as “reduced” and the sympathetic nerve activity result is reported as “inhibited”. Moreover, the “bone mass of the trabecular bone” value in assay [5] is reported as “decrease”.

Take `CN1CCN(C2=Nc3ccccc3Nc3ccccc32)CC1` [Deschloroclozapine]: the “affinity for hM4Di” value on hM4Di is recorded as “higher”. Moreover, the “affinity for hM3Dq” value on hM3Dq is “higher”.
